pIC50: −log10 of the molar value.
Legend:
Type in all cases: cell-based, human
PBM cells = experiment: Cell viability resazurin assay, PBM cells; details: for viability of PBM cells relative to control: ± SD
Text: Peripheral blood mononuclear (PBM) cells were isolated from a leukocyte-buffy coat collected from the blood of healthy, non-smoking donors at the Blood Bank in Lodz, Poland. The study protocol received approval from the Committee for Research on Human Subjects of the University of Lodz (17/KBBN-UŁ/III/2019). The initial step of isolation process involved mixing buffy coats with PBS in a 1:1 ratio. Subsequently, the mixture was centrifuged using a density gradient of Lymphosep (Cytogen, Zgierz, Poland) at 2200 RPM for 20 min, employing the lowest values for acceleration and deceleration. PBM cells were collected and washed three times by centrifugation with 1 × PBS. Following isolation, the cells were suspended in RPMI 1640 medium.
(§1) Firstly, resazurin salt powder was dissolved in sterile 1 × PBS. Cells were then seeded on the 96-well plates in the count of 1 × 10^4 in the case of HL-60 cells and of 5 × 10^4 for PBM cells and of 5 × 10^3 for A549 cells per well. A549 cells were seeded 24 h prior to treatment with the complexes to allow cell adherence to 96-well plate. Iron(II) complexes were added to wells to obtain final concentrations of 0.5, 1, 2.5, 5, 10, 25, 50, 100 and 250 μM. Subsequently, plates were incubated at 37 °C in 5% CO2 for 2 h and 24 h. After that 10 μl of resazurin salt was added to each well and plates again were incubated in 37 °C in 5% CO2 for 2 h. Finally, fluorescence was measured with microplate reader Synergy HT (Bio-Tek Instruments, USA) using an excitation wavelength of 530/25 and an emission wavelength of 590/35 nm. The effects of iron(II) complexes were calculated as the percentage of control fluorescence. IC50 (half maximal inhibitory concentration) values were calculated using a website algorithm (https://www.aatbio.com/tools/ic50-calculator). All assays were performed in octuplicate.

HL-60 cells = experiment: Cell viability resazurin assay, HL-60 cells; details: for viability of HL-60 cells relative to control: ± SD
Description: (§2) The A549 (human non-small cell lung cancer) cell line was obtained from the American Type Culture Collection (ATCC) and cultured in Dulbecco's Modified Eagle Medium (DMEM) with 10% fetal bovine serum (FBS), 2 mM L-Glutamine, 25 mM HEPES and penicillin/streptomycin solution (100 U/ml and 100 µg/ml, respectively). The HL-60 (human promyelocytic leukemia) cell line was also obtained from the American Type Culture Collection (ATCC) and cultured in Iscove’s Modified Dulbecco's Medium (IMDM) with 15% fetal bovine serum (FBS), 2 mM L-Glutamine, 25 mM HEPES and penicillin/streptomycin solution (100 U/ml and 100 µg/ml, respectively). Both cell lines were cultured in flasks at 37 °C in 5% CO2 and sub-cultured every 2–3 days to maintain exponential growth.
as §1

A549 cells = experiment: Cell viability resazurin assay, A549 cells; details: for viability of A549 cells relative to control: ± SD
Description: as §2, §1

O=C1C=CC(=O)[N-]1.[C-]#[O+].[Fe+2].c1cc[cH-]c1.c1ccc(OP(Oc2ccccc2)Oc2ccccc2)cc1 [3b, CpFe(CO)(P(OPh)3)(η^1-N-maleimidato)]
viability of PBM cells relative to control (PBM cells; 2 h incubation, 0.5 µM): 98.5 ± 2.18% | viability of PBM cells relative to control (PBM cells; 2 h incubation, 1 µM): 99.88 ± 2.57% | viability of PBM cells relative to control (PBM cells; 2 h incubation, 2.5 µM): 97.35 ± 5.51% | viability of PBM cells relative to control (PBM cells; 2 h incubation, 5 µM): 100.32 ± 3.02% | viability of PBM cells relative to control (PBM cells; 2 h incubation, 10 µM): 99.06 ± 3.6% | viability of PBM cells relative to control (PBM cells; 2 h incubation, 25 µM): 98.42 ± 1.87% | viability of PBM cells relative to control (PBM cells; 2 h incubation, 50 µM): 100.03 ± 0.88% | viability of PBM cells relative to control (PBM cells; 2 h incubation, 100 µM): 98.48 ± 0.54% | viability of PBM cells relative to control (PBM cells; 2 h incubation, 250 µM): 99.51 ± 1.24% | pIC50 (PBM cells; 24 h incubation): 5.24 | viability of PBM cells relative to control (PBM cells; 24 h incubation, 0.5 µM): 97.8 ± 2.01% | viability of PBM cells relative to control (PBM cells; 24 h incubation, 1 µM): 98.46 ± 7.18% | viability of PBM cells relative to control (PBM cells; 24 h incubation, 2.5 µM): 94.41 ± 2.27% | viability of PBM cells relative to control (PBM cells; 24 h incubation, 5 µM): 52.91 ± 0.63% | viability of PBM cells relative to control (PBM cells; 24 h incubation, 10 µM): 49.35 ± 1.94% | viability of PBM cells relative to control (PBM cells; 24 h incubation, 25 µM): 31 ± 1.1% | viability of PBM cells relative to control (PBM cells; 24 h incubation, 50 µM): 28.33 ± 2.17% | viability of PBM cells relative to control (PBM cells; 24 h incubation, 100 µM): 16.65 ± 0.55% | viability of PBM cells relative to control (PBM cells; 24 h incubation, 250 µM): 13.82 ± 0.52% | viability of HL-60 cells relative to control (HL-60 cells; 2 h incubation, 0.5 µM): 108.58 ± 5.93% | viability of HL-60 cells relative to control (HL-60 cells; 2 h incubation, 1 µM): 105.27 ± 5.97% | viability of HL-60 cells relative to control (HL-60 cells; 2 h incubation, 2.5 µM): 111.13 ± 4.29% | viability of HL-60 cells relative to control (HL-60 cells; 2 h incubation, 5 µM): 116.45 ± 4.31% | viability of HL-60 cells relative to control (HL-60 cells; 2 h incubation, 10 µM): 125.67 ± 4.5% | viability of HL-60 cells relative to control (HL-60 cells; 2 h incubation, 25 µM): 140.68 ± 7.01% | viability of HL-60 cells relative to control (HL-60 cells; 2 h incubation, 50 µM): 116.21 ± 2.09% | viability of HL-60 cells relative to control (HL-60 cells; 2 h incubation, 100 µM): 70.87 ± 2.53% | viability of HL-60 cells relative to control (HL-60 cells; 2 h incubation, 250 µM): 23.24 ± 0.25% | HL-60 cell viability, sharp increase up to (HL-60 cells; 2 h incubation, concentration not given): approximately 140% | pIC50 (HL-60 cells; 24 h incubation): 5.04 | viability of HL-60 cells relative to control (HL-60 cells; 24 h incubation, 0.5 µM): 101.68 ± 1.04% | viability of HL-60 cells relative to control (HL-60 cells; 24 h incubation, 1 µM): 98.91 ± 4.85% | viability of HL-60 cells relative to control (HL-60 cells; 24 h incubation, 2.5 µM): 91.42 ± 3.16% | viability of HL-60 cells relative to control (HL-60 cells; 24 h incubation, 5 µM): 72.37 ± 3.19% | viability of HL-60 cells relative to control (HL-60 cells; 24 h incubation, 10 µM): 49.27 ± 1.71% | viability of HL-60 cells relative to control (HL-60 cells; 24 h incubation, 25 µM): 3.18 ± 0.36% | viability of HL-60 cells relative to control (HL-60 cells; 24 h incubation, 50 µM): 0.99 ± 0.02% | viability of HL-60 cells relative to control (HL-60 cells; 24 h incubation, 100 µM): 0.96 ± 0.1% | viability of HL-60 cells relative to control (HL-60 cells; 24 h incubation, 250 µM): 0.94 ± 0.06% | viability of A549 cells relative to control (A549 cells; 2 h incubation, 0.5 µM): 94.42 ± 12.46% | viability of A549 cells relative to control (A549 cells; 2 h incubation, 1 µM): 97.15 ± 8.30% | viability of A549 cells relative to control (A549 cells; 2 h incubation, 2.5 µM): 96.59 ± 9.16% | viability of A549 cells relative to control (A549 cells; 2 h incubation, 5 µM): 90.46 ± 7.14% | viability of A549 cells relative to control (A549 cells; 2 h incubation, 10 µM): 93.75 ± 11.55% | viability of A549 cells relative to control (A549 cells; 2 h incubation, 25 µM): 97.77 ± 7.39% | viability of A549 cells relative to control (A549 cells; 2 h incubation, 50 µM): 104.82 ± 7.84% | viability of A549 cells relative to control (A549 cells; 2 h incubation, 100 µM): 97.69 ± 11.65% | viability of A549 cells relative to control (A549 cells; 2 h incubation, 250 µM): 97.95 ± 13.58% | pIC50 (A549 cells; 24 h incubation): 4.72 | viability of A549 cells relative to control (A549 cells; 24 h incubation, 0.5 µM): 91.38 ± 8.55% | viability of A549 cells relative to control (A549 cells; 24 h incubation, 1 µM): 92.49 ± 11.20% | viability of A549 cells relative to control (A549 cells; 24 h incubation, 2.5 µM): 78.64 ± 6.01% | viability of A549 cells relative to control (A549 cells; 24 h incubation, 5 µM): 80.46 ± 7.49% | viability of A549 cells relative to control (A549 cells; 24 h incubation, 10 µM): 80.04 ± 11.40% | viability of A549 cells relative to control (A549 cells; 24 h incubation, 25 µM): 25.66 ± 3.11% | viability of A549 cells relative to control (A549 cells; 24 h incubation, 50 µM): 22.34 ± 2.60% | viability of A549 cells relative to control (A549 cells; 24 h incubation, 100 µM): 42.71 ± 5.87% | viability of A549 cells relative to control (A549 cells; 24 h incubation, 250 µM): 28.61 ± 5.09%
